In patent publication US12458604B2, “Methods of lipid nanoparticle manufacture and compositions derived therefrom” (George Mason Research Foundation, Inc., priority 2020, dated 2025):

Columns and labels:
[1] = pKa of the ionizable lipid measured in the LNP (TNS pKa); assay type: physicochemical; settings: for pKa: lipid nanoparticle (LNP) containing the ionizable lipid; for DpKa: ACD pKa versus TNS pKa
Description: In some embodiments, the “LNP lipids” are MC3, DLin, and/or KC2 as shown below. The table highlights the pKa of the ionizable lipid measured in the LNP (TNS pKa) versus the pKa in aqueous medium predicated by a commercial software ACDLabs Percepta.:
In one embodiment, the amount of nucleic acid is represented by the LNP mole ratio of the amine on the ionizable lipid to the phosphate groups on the nucleic acid backbone and is typically about 3 to about 6. In one embodiment, the pKa of the LNP is in the about 6 to about 7 range corresponding to the pH in the early endosome. A link between the pKa of ionizable lipid in the LNP and gene silencing efficiency has shown that an LNP pKa in the range of about 6 to about 7 produced more silencing for the ionizable lipid DLinDMA and was associated with promoting lipid structures that could disrupt the membrane of the endosome. The pKa of the LNP may be measured using the pH-dependence of fluorescence enhancement of the anionic dye TNS.

HEK293 cells = experiment: Firefly Luciferase Assay for mRNA Delivery Efficiency; assay type: cell-based; settings: for potency when sodium acetate concentration was reduced from 60 mM to 25 mM / potency when mixed at the higher concentration 1.5 mg/ml vs the lower concentration 0.25 mg/ml: Example 12; for potency when mixed at the higher concentration 1.5 mg/ml vs the lower concentration 0.25 mg/ml / LNP potency at the higher versus lower mixing concentration: same dose; for LNP potency at the higher versus lower mixing concentration: NP 4, sodium acetate pH 4
Procedure: Summary: LNPs were formulated using total lipid concentration of 6 to 27 mM comprised of KC2/DSPC/Cholesterol/PEG-DMG (50:10:38.5:1.5 mol %). Each one of the lipids were solubilized in ethanol until a clear solution was observed. The four lipids were combined to get 50 mM total lipid concentration (25/5/19.25/0.75 mM respectively), then serial dilutions were done to reach 6 to 27 mM. […] Purified mRNA was ethanol precipitated, washed and resuspended in nuclease-free water to reach concentrations of 1 mg/mL. […] 16 μl Lipid Mix and 341 mRNA solution were mixed on Setting 3 and ejected into 48 μl 1×DPBS pH 7.4. The formed LNPS were then diluted into an additional 96 μl 1×DPBS pH 7.4. LNPs were then dialyzed against 1×DPBS pH 7.4 for 4×1 hr. LNPs were then diluted so that 32 ul contained 200 ng and 12K HEK293 cells were transfected with the same 200 ng dose but manufactured at different concentrations in the microfluidic mixer.
A. Firefly Luciferase Assay for mRNA Delivery Efficiency. After 24 hours of transfection, transfected cells were conditioned to room temperature for 30 minutes prior the Firefly Luciferase Assay. Quantilum Recombinant Luciferase standard curve was prepared in 10% EMEM in 5-fold serial dilutions. 50 ul of each standard point from the range of 3.9×10^−5 mg/ml to 4.88×10^−3 mg/ml were included in the microplate as a positive enzyme activity control (data not shown) to maintain a linearity of 10^7 RLU/mg/ml. The ONE-Glo substrate, previously conditioned to room temperature for at least 4 hours, was added to each untransfected, transfected and Quantilum wells in a ratio 1:1. Assay plates were incubated for 3 minutes in darkness and immediately introduced into the Cytation 5 Cell Imaging Multi-Mode Reader (Biotek) to read luminescence.
Each one of the lipids were solubilized in ethanol until a clear solution was observed. […] To prepare 75 mM total lipid concentration (37.5/7.5/28.88/1.13 mM respectively), KC2/DL-ADDE-C2C2-PipZ/BODD-ADDE-C2C4-PipZ and Cholesterol were mixed first, same for DSPC and PEG to solubilize both solutions in ethanol before combining them to reach 75 mM. […] Purified mRNA was ethanol precipitated, washed and resuspended in nuclease-free water to reach concentrations of 4.4 mg/ml. […] 16 μl Lipid Mix and 341 mRNA solution were mixed on Setting 3 and ejected into 48 μl 1×DPBS pH 7.4. The formed LNPS were then diluted into an additional 96 μl 1×DPBS pH 7.4. LNPs were then dialyzed against 1×DPBS pH 7.4 for 4×1 hr. LNPs were then diluted so that 32 ul contained 25-200 ng and 12K HEK293 cells were transfected with the same dose but manufactured at different concentrations in the microfluidic mixer.

SARS-CoV-2 = experiment: In vivo protection against viral challenge; settings: SARS-CoV-2 immunogen mRNA, mice, I.M.
Procedure: Summary: LNPs were formulated using total lipid concentration of 10-75 mM comprised of several ionizable/DSPC/Cholesterol/PEG-DMG (47-50:10-13:37-38.5:1.5-2 mol %). Each one of the lipids were solubilized in ethanol until a clear solution was observed. The four lipids were combined to get 75 mM total lipid concentration then serial dilutions were done to reach 10 mM. Codon optimized 2019-nCoV Wuhan S-2P (Covid) sequence was cloned into an mRNA plasmid (optimized 3′ and 5′ UTR and containing a 101 polyA tail (SEQ ID NO: 4)) for co-transcriptional capping, in vitro transcribed using N1 methyl pseudouridine modified nucleoside and cellulose purified to remove dsRNA. Purified mRNA was ethanol precipitated, washed and resuspended in nuclease-free water to reach concentrations of 5.5 mg/ml. […] 16 μl Lipid Mix and 32 μl mRNA solution were mixed on Setting 3 and ejected into 48 μl 1×DPBS pH 7.4. The formed LNPS were then diluted into an additional 96 μl 1×DPBS pH 7.4. LNPs were then dialyzed against 1×DPBS pH 7.4 for 4×1 hr. LNPs were then diluted so that 32 ul contained 25-200 ng and 12K HEK293 cells were transfected with the same dose but manufactured at different concentrations in the microfluidic mixer.
A: In vivo protection against viral challenge—Survival proportion, Weight and Temperature in Challenge model. […]

mice = experiment: In vivo and ex vivo Firefly Luciferase expression (IVIS); settings: for higher potency in vivo of buffer-free assembly compared to using a buffer: by IVIS, high lipid and mRNA mixing concentrations, 0.25 protons per ionizable lipid, NP 4
Procedure: C: In vivo Firefly Luciferase expression in IM administration. 5 ug of encapsulated mRNA were injected in mice in intramuscular (I.M.), intradermal (ID.) and intravenous (I.V.) injections. ROIs were calculated using the IVIS system. Imaging were performed at 4 and 20 hours.
(§1) C: In vivo Firefly Luciferase expression in IM administration. 0.5-5 ug of total mRNA was injected in mice in intramuscular (I.M.) injections. Luciferin was administrated intraperitoneally at 4 hours post-injection and luciferase expression monitored by live animal imaging at 4 and 24 hours. ROIs were calculated using the IVIS system.
as §1, with “D:” for “C:”, “In vivo and ex” for “In”, “administration for LNPs mixed at 1.5 mg/ml. 1” for “administration. 0.5-5”, “4” for “4 and 24”, “system. For Ex Vivo, organs were extracted and imaged immediately after In Vivo imaging.” for “system.”
E: In vivo and ex vivo Firefly Luciferase expression in IV administration for LNPs mixed at 1.5 mg/ml. 1 ug of total mRNA was injected in mice in […] (I.V.) injections. Luciferin was administrated intraperitoneally at 4 hours post-injection and luciferase expression monitored by live animal imaging at 4 hours. ROIs were calculated using the IVIS system. For Ex Vivo, organs were extracted and imaged immediately after In Vivo imaging.

[2] = pKa of the ionizable lipid measured in the LNP; published ionizable lipids; cited from earlier work

| SMILES | pKa [1] | potency when sodium acetate concentration was reduced from 60 mM to 25 mM (HEK293 cells) | potency when mixed at the higher concentration 1.5 mg/ml vs the lower concentration 0.25 mg/ml (HEK293 cells) | potency on increasing pH from 4 to 5 (HEK293 cells; Example 13, 1.5 mg/ml mRNA in 25 mM NaOAc) | LNP potency at the higher versus lower mixing concentration (HEK293 cells; in vitro) | Protective against lethal challenge (SARS-CoV-2; 0.25 ug) [%] | higher potency in vivo of buffer-free assembly compared to using a buffer (mice; IM administration) [×] | higher potency in vivo of buffer-free assembly compared to using a buffer (mice; IV administration) [×] | DpKa [1] | Protective against lethal challenge (SARS-CoV-2; 0.5 ug) [%] | TNS pKa [2] | LNP potency increase when reducing sodium acetate from 50 mM to 25 mM (HEK293 cells; 1.5 mg/ml of mRNA, pH 4, NP 4) [%] | delivery efficiency at the same dose with increased mixing concentration (HEK293 cells; in vitro, KC2/DSPC/Cholesterol/PEG-DMG LNPs, NP 4) | LNP potency increase when reducing sodium acetate concentration from 25 mM to 10 mM (HEK293 cells; mRNA concentration of 0.25 mg/ml, pH 4, NP 4) [×] | delivery efficiency at the same dose with increased mixing concentration (mice; in vivo, 5 ug of encapsulated mRNA, lipids 5 to 100 mM, mRNA 0.1 to 2 mg/ml) |
| --- | --- | --- | --- | --- | --- | --- | --- | --- | --- | --- | --- | --- | --- | --- | --- |
| CCCCCCCCC(CCCCCCCC)COC(=O)CCN(CCCCN1CCN(C)CC1)CCC(=O)OCC(CCCCCCCC)CCCCCCCC [BOD-C2/C4-PipZ] | ~6.5 | increased potency | large increase in potency | increases potency | LNP potency increases | 100 | 3 | 3 |  |  |  |  |  |  |  |
| CCCCC/C=C\C/C=C\CCCCCCCCC(CCCCCCCC/C=C\C/C=C\CCCCC)OC(=O)CCCN(C)C [MC3] | ~6.5 | increased potency | large increase in potency |  | LNP potency increases |  |  |  | 3 | 100 | 6.4 |  |  |  |  |
| CCCCC/C=C\C/C=C\CCCCCCCCOC(=O)CCN(CCC(=O)OCCCCCCCC/C=C\C/C=C\CCCCC)CCN1CCN(C)CC1 (racemic) [DL-C2/C2-PipZ] | ~7.5 | did not show either effect | did not |  |  |  |  |  |  |  |  |  |  |  |  |
| CCCCC/C=C\C/C=C\CCCCCCCCC1(CCCCCCCC/C=C\C/C=C\CCCCC)OCC(CCN(C)C)O1 (centres unmarked) [KC2] | ~6.5 | increased potency | large increase in potency |  | LNP potency increases |  |  |  | 2.6 |  | 6.7 | 44 | increased delivery efficiency at the same dose only at the lowest NaOAc concentration of 50 mM | 2.2 | increased delivery efficiency |
| CCCCC/C=C\C/C=C\CCCCCCCCOCC(CN(C)C)OCCCCCCCC/C=C\C/C=C\CCCCC (centres unmarked) [DLin] |  |  |  |  |  |  |  |  | 1.8 |  |  |  |  |  |  |
